Experiments:
CYP3A = CYP3A (Homo sapiens, UniProt P08684); assay: In vitro inhibitory activity against common CYP450 enzymes: CYP3A (midazolam); type: in vitro ADME; conditions: human, human liver microsomes, probe Midazolam, substrate Midazolam
Method: (§1) A working solution of the test compound was prepared in a solvent of dimethyl sulfoxide (DMSO) (starting at a final concentration of 50 μM, 3-fold dilution of 7 concentration points). The corresponding microsomes (CORNING, Cat No.452117) and the corresponding substrate solution were prepared (components were shown in Table 2). The working solution of the test compound and the corresponding microsomes were mixed with the corresponding substrate solution and the HLM working solution. The mixture was preheated in a 37.0° C. water bath for 10 min. NADPH cofactor (BONTAC, Cat No.BT04) was added. The resultant mixture was incubated for 10 min in a 37.0° C. water bath. The reaction was terminated by adding cold stop solution. [table] [table] The sample was centrifuged at 4000 rpm for 20 min to precipitate protein and the supernatant was transferred to HPLC water and shaken for 10 min.

aldosterone synthesis = assay: Pharmacodynamic test in cynomolgus monkeys with ACTH stimulation: aldosterone in plasma; type: in vivo, cynomolgus monkeys (Macaca fascicularis)
From the text: Adult cynomolgus monkeys (Macaca fascicularis) with suitable body weight and age were selected. 1 male and 1 female cynomolgus monkeys were used for experiment. The adaptation period was 1 week. On the day of the experiment, monkeys were individually housed in stainless steel mesh cages for testing.
Oral treatment and ACTH working solution (working solution diluted to the desired concentration in PBS sterile solution by ultrapure water filtration through a 0.22 μm filter using Tetracosactrin (HY-P0060, MCE)) were administered as follows: • T=0, 2 monkeys in each group were orally administered 0.5 mg/kg (compound was suspended in 5% aqueous sodium hydroxymethylcellulose solution as vehicle) in a fixed volume of 2 mL/kg; • T=+1 hour (i.e., 1 hour after administration), 14.5 μg/kg of the aforementioned ACTH working solution was injected intramuscularly.
Sampling test: Blood samples (collected in EDTA anticoagulant tubes) were collected before oral administration (Pre-dose) and 0.5 h, 1 h, 2 h, 4 h, 6 h and 12 h after administration for cortisol concentration measurement in plasma. The blood was centrifuged at 10000 rpm for 15 minutes at 4° C., followed by separation of the plasma and uniform storage at −80° C. for further analysis using an Roche biochemical analyzer to detect aldosterone and cortisol in plasma, and a portion of the plasma (0.5 h, 1 h, 2 h, 4 h, 6 h, and 12 h after administration, and an additional blood collection after 24 h) was taken simultaneously to determine the pharmacokinetic parameters by LC/MS.
The above experiment was repeated except that: T=0, two monkeys in each group were orally administered at a dose of 0.05 mg/kg (compound was suspended in 5% aqueous sodium hydroxymethylcellulose as vehicle) in a fixed volume of 2 mL/kg.

aldosterone synthase = aldosterone synthase (Homo sapiens (Human), UniProt P19099); conditions: phase I clinical study, cited from earlier work
aldosterone synthase, sequence (P19099 25-503): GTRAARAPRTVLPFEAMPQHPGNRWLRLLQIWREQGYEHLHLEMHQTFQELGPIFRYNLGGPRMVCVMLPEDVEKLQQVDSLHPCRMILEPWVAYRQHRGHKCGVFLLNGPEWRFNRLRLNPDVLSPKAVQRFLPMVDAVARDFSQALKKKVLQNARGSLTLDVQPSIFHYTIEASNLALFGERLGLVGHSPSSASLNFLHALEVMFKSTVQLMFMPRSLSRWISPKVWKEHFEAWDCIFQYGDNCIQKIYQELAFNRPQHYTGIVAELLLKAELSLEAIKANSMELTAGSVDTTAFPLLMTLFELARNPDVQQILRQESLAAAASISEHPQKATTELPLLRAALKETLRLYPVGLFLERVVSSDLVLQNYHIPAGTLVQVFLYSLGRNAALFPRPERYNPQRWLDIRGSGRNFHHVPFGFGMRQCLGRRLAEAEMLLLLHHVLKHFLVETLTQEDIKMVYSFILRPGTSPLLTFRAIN

CYP2D6 = CYP2D6 (Homo sapiens (Human), UniProt P10635); assay: In vitro inhibitory activity against common CYP450 enzymes: CYP2D6; type: in vitro ADME; conditions: microsomes, substrate Dextromethorphan
CYP2D6, sequence (P10635 whole entry): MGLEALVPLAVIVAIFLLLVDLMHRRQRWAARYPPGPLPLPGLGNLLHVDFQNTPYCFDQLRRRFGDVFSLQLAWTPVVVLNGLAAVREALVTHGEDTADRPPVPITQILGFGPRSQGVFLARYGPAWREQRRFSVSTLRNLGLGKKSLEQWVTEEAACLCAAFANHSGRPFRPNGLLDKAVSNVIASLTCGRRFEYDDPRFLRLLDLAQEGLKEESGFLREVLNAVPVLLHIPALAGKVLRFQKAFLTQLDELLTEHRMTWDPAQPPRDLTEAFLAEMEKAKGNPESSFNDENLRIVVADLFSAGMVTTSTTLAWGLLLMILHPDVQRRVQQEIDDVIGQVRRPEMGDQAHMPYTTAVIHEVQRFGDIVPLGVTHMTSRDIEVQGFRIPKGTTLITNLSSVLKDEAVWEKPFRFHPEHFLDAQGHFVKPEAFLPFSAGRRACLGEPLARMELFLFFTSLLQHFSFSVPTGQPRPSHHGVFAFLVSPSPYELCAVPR
Method: as §1

CYP3A, sequence (P08684 2-503 limits assumed): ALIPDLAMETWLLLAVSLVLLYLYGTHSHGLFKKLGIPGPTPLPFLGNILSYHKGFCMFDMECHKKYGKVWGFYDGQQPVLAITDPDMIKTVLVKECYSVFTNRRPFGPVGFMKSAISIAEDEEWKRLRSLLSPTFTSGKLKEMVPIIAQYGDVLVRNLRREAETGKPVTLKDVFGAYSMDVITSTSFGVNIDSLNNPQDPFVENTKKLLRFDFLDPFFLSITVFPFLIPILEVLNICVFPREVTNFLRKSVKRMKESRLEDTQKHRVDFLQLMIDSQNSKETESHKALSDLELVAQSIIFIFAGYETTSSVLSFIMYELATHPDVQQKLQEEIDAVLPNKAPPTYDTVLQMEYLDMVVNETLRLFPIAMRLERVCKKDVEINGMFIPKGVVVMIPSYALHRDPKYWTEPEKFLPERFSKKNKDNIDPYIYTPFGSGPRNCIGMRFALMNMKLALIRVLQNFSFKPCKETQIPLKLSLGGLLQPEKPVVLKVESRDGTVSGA

In the case of `CCC(=O)N[C@@H]1CCCc2c(-c3ccc4c(c3)CCC(=O)N4C)cncc21` [Baxdrostat, reference compound], the IC50 at 10 min (CYP3A) is reported as > 50 µM, the “Aldosterone Concentration in Plasma” value (aldosterone synthesis; 0.05 mg/kg oral, 0.5 h) is reported as 846.13 pg/mL and the “Aldosterone Concentration in Plasma” value (aldosterone synthesis; 0.05 mg/kg oral, 1 h (ACTH at +1 hour)) is reported as 964.09 pg/mL. The “Aldosterone Concentration in Plasma” value (aldosterone synthesis; 0.05 mg/kg oral, 2 h) was 568.08 pg/mL, the “Aldosterone Concentration in Plasma” value (aldosterone synthesis; 0.05 mg/kg oral, 4 h) was 119.97 pg/mL and the “Aldosterone Concentration in Plasma” value (aldosterone synthesis; 0.05 mg/kg oral, 6 h) was 101.14 pg/mL. The “Aldosterone Concentration in Plasma” value (aldosterone synthesis; 0.05 mg/kg oral, 12 h) was 139.85 pg/mL, the “Aldosterone Concentration in Plasma” value (aldosterone synthesis; 0.05 mg/kg oral, Pre-dose) was 292.42 pg/mL and the “Aldosterone Concentration in Plasma” value (aldosterone synthesis; 0.5 mg/kg oral, 0.5 h) was 593.37 pg/mL. The “Aldosterone Concentration in Plasma” value (aldosterone synthesis; 0.5 mg/kg oral, 1 h (ACTH at +1 hour)) was 361.74 pg/mL, the “Aldosterone Concentration in Plasma” value (aldosterone synthesis; 0.5 mg/kg oral, 2 h) was 119.96 pg/mL and the “Aldosterone Concentration in Plasma” value (aldosterone synthesis; 0.5 mg/kg oral, 4 h) was 83.97 pg/mL. For the same molecule, the “Aldosterone Concentration in Plasma” value (aldosterone synthesis; 0.5 mg/kg oral, 6 h) was 86.11 pg/mL, the “Aldosterone Concentration in Plasma” value (aldosterone synthesis; 0.5 mg/kg oral, 12 h) was 92.61 pg/mL and the “Aldosterone Concentration in Plasma” value (aldosterone synthesis; 0.5 mg/kg oral, Pre-dose) was 126.77 pg/mL. For the same molecule, the “reduction of aldosterone level in plasma” value (aldosterone synthase; dose-dependent) was “more than 70%”, the “inhibition of aldosterone synthase relative to inhibition of cortisol synthesis” value (aldosterone synthase) was 100 times and the IC50 (CYP2D6) was > 50 µM.

Source: patent US20250361240A1, “PYRANOPYRIDINE COMPOUND, PROCESS FOR PREPARING THE SAME, PHARMACEUTICAL COMPOSITION AND USE THEREOF” (Zhejiang Yangli Pharmaceutical Technology Co., Ltd., priority 2024, published 2025)
